From patent US10982337B2, “Corrosion inhibition” (SCHLUMBERGER TECHNOLOGY CORPORATION, priority 2015, dated 2021)

Legend:
[1] = Corrosion weight loss test on steel coupons in HCl; design: Pitting Index: scale not given here
Excerpt: (§1) Such “acceptable” levels of corrosion are application-specific.

[2] = Corrosion weight loss test on steel coupons in HCl; design: Pitting Index: scale not given here; remark: listed apart in the source
Excerpt: as §1

[3] = Corrosion weight loss test on steel coupons in HCl; design: Pitting Index: scale not given here; remark: listed apart in the source
Excerpt: as §1

[4] = Rotating Cylinder Electrode electrochemistry, charge transfer resistance; settings: 5 mM inhibitor, 10 mM KI, 4 mol/L HCl, 2000 rpm, 80° C.; FIG. 6
Excerpt: (§2) EIS can be used to monitor the corrosion rate of a system. The parameter of interest is the charge transfer resistance, Rct, which can be thought of the ‘resistance’ to corrosion. A metal test piece is used as the working electrode in a three-electrode electrochemical cell with the corrosive solution as electrolyte. Impedance data is obtained by applying a small alternating voltage to the working electrode and measuring the resulting current to obtain a value of impedance. This is done at a range of frequencies. Then, in order to extract the parameter of interest, the metal/inhibitor/electrolyte interfaces are modelled as an electrical equivalent circuit and the theoretical impedance is fitted to the data. […] Charge transfer resistance, Rct, is measured. Charge transfer resistance, Rct is a measure for corrosion resistance, and is inversely proportional to corrosion rate (CR). Therefore 1/Rct is proportional to CR.

[5] = as above; settings: 5 mM inhibitor, 10 mM KI, 4 mol/L HCl, 2000 rpm, 80° C.; FIG. 6; remark: listed apart in the source
Excerpt: as §2

[6] = as above; settings: 5 mM inhibitor, 10 mM KI, 4 mol/L HCl, 2000 rpm, 80° C.; FIG. 6; remark: listed apart in the source
Excerpt: as §2

[7] = as above; settings: 5 mM inhibitor, 10 mM KI, 4 mol/L HCl, 2000 rpm, 80° C.; FIG. 6; remark: listed apart in the source
Excerpt: as §2

[8] = Marine algal growth inhibition test ISO 10253; format: cell-based, Skeletonema costatum; settings: Skeletonema costatum, cultures of the marine alga Skeletonema costatum; algal growth inhibition, 72 h, WAF in sea water, 10-1000 mg/L tested
Method: (§3) The acute toxicity of NMHQ to the marine algae Skeletonema costatum was tested. Cultures of the algae Skeletonema costatum were exposed to a series of concentrations of NMHQ. The test was carried out according to ISO protocol ‘ISO 10253 Water quality—Marine algal growth inhibition test with Skeletonema costatum and Phaeodactylum tricornutum’.
(§4) In addition to blank, concentrations of 10, 100, 1000 mg/L (WAF) in sea water were tested.

Skeletonema costatum = assay: Marine algal growth inhibition test ISO 10253; format: cell-based
Method: as §3, §4

[9] = Corrosion weight loss test on steel coupons in HCl
Method: Experiments were carried out with coupons of the following steels: • 22Cr125 also designated 2205, a duplex alloy steel which is an iron-chromium-nickel-molybdenum alloy, used (among other things) to fabricate casing. • HS80™ (TradeMark of TENARIS), a low carbon steel used to fabricate coiled tubing. • N80, a medium carbon steel used to fabricate borehole casing. • 13Cr80, an alloy steel containing 13 wt % chromium without nickel, also used to fabricate borehole casing.
(1) Metal Type: Duplex Stainless Steel 22Cr125 Casing (2205 b6); 4 mol/L HCl, T=80° C., 3 Hours Exposure

[10] = 0.3000 wt % (10.97 mmol/L), 4 mol/L HCl, 80° C., 3 hours

c1ccc2c(c1)CCCN2Cc1cccc2ccccc12 [NMTHQ]
Pitting Index ([1]; 0.1368 wt % (5.00 mmol/L), no KI, 4 mol/L HCl, 80° C., 3 hours): 3 | Pitting Index ([1]; 0.1389 wt % (5.08 mmol/L) + KI 10 mmol/L): 0 | Pitting Index ([1]; 0.2065 wt % (7.55 mmol/L), 4 mol/L HCl, 80° C., 3 hours): 2 | Pitting Index [1, 10]: 0 | Pitting Index ([1]; 0.3013 wt % (11.02 mmol/L), 4 mol/L HCl, 80° C., 3 hours): 0 | Pitting Index ([1]; 0.3017 wt % (11.04 mmol/L), 4 mol/L HCl, 80° C., 3 hours): 0 | factor by which addition of 10 mM potassium iodide reduces the weight loss ([1]; N80, NMTHQ 4.0-5.1 mmol/L): 5.3 | Pitting Index ([2]; 0.0055 wt % (0.20 mmol/L), 4 mol/L HCl, 80° C., 3 hours): 5 | Pitting Index ([2]; 0.0273 wt % (1.00 mmol/L), 4 mol/L HCl, 80° C., 3 hours): 2 | Pitting Index ([2]; 0.11 wt % (4.02 mmol/L), 4 mol/L HCl, 80° C., 3 hours): 0 | Pitting Index ([2]; 0.1366 wt % (5.00 mmol/L) + KI 10 mmol/L): 0 | Pitting Index ([2]; 0.1366 wt % (5.00 mmol/L), no KI, 4 mol/L HCl, 80° C., 3 hours): 0 | Pitting Index ([2]; 0.192 wt % (7.02 mmol/L), 4 mol/L HCl, 80° C., 3 hours): 0 | factor by which addition of 10 mM potassium iodide reduces the weight loss ([2]; HS80, NMTHQ 4.0-5.1 mmol/L): 8.8 | Pitting Index ([3]; 0.1367 wt % (5.00 mmol/L), no KI, 4 mol/L HCl, 80° C., 3 hours): 4 | Pitting Index ([3]; 0.1382 wt % (5.06 mmol/L) + KI 10 mmol/L): 0 | Pitting Index [3, 10]: 0 | inhibition performance compared at equivalent molar concentrations (in words) ([3]; 13Cr80, 4 mol/L HCl, 80° C., 3 hours): superior to the known acid corrosion inhibitor, NMQCl | factor by which addition of 10 mM potassium iodide reduces the weight loss ([3]; 13Cr80, NMTHQ 4.0-5.1 mmol/L): 10.5 | 1/Rct (proportional to corrosion rate), NMHQ compared with NMQCl [4]: very similar results | 1/Rct (proportional to corrosion rate), NMHQ compared with NMQCl [5]: very similar results | 1/Rct (proportional to corrosion rate), NMHQ compared with NMQCl [6]: more effective inhibitor | 1/Rct (proportional to corrosion rate), NMHQ compared with NMQCl [7]: significant lower | EC50 at 72 h [8]: > 1000 µg/mL | EC90 at 72 h [8]: > 1000 µg/mL | NOEC(72 h) (Skeletonema costatum; algal growth inhibition, 72 h, WAF in sea water, 10-1000 mg/L tested): 1000 mg/L | aquatic toxicity (in words) (Skeletonema costatum; seawater under neutral conditions (pH 7.7-8.3)): zero aquatic toxicity | Pitting Index ([9]; 0.11 wt % (4.02 mmol/L) + KI 10 mmol/L, 2205 (b6)): 0 | Pitting Index ([9]; 0.11 wt % (4.02 mmol/L), no KI, 2205 b6, 4 mol/L HCl, 80° C., 3 hours): 4 | Pitting Index ([9]; 0.1367 wt % (5.00 mmol/L), KI 0, 2205 (b5)): 4 | Pitting Index ([9]; 0.1368 wt % (5.00 mmol/L) + KI 20 mmol/L, 2205 (b5)): 0 | Pitting Index ([9]; 0.1913 wt % (7.00 mmol/L), 2205 b6, 4 mol/L HCl, 80° C., 3 hours): 3 | Pitting Index ([9]; 0.30 wt % (10.97 mmol/L), 2205 b6, 4 mol/L HCl, 80° C., 3 hours): 0 | Pitting Index ([9]; 0.547 wt % (20.01 mmol/L), 2205 b6, 4 mol/L HCl, 80° C., 3 hours): 0 | inhibition performance compared at equivalent molar concentrations (in words) ([9]; 22Cr125, 4 mol/L HCl, 80° C., 3 hours): very similar to the known acid corrosion inhibitor NMQCl | factor by which addition of 10 mM potassium iodide reduces the weight loss ([9]; 2205 (b6), NMTHQ 4.0-5.1 mmol/L): 9.4
